Experimental data: patent US20260062441A1, “TUMOR-SEEKING GLUCOSE-DENDRONS FOR THE DELIVERY OF CHEMOTHERAPEUTICS AND IMAGING AGENT TO CANCER CELLS” (THE BOARD OF TRUSTEES OF THE UNIVERSITY OF ILLINOIS, priority 2022, published 2026)

Experiments:
[1] = chloroform; cited from earlier work
[2] = Photophysical characterization; type: physicochemical; conditions: for ε / λabs / λem: 3:7 v/v MeCN:PBS (pH=7.4); for PABF: PA Brightness Factor; for Φ: relative to dimethoxy aza-BODIPY
Experimental: Photophysical Characterization. Extinction coefficients and fluorescence quantum yields were acquired in experimental triplicates. Extinction coefficients were measured by performing serial dilutions of the compounds in 3:7 v/v MeCN:PBS (pH=7.4) within the linear range (absorbance values between 0.05-1.5). Reported fluorescence quantum yields are relative quantum yields compared to dimethoxy aza-BODIPY (Φ=0.36, chloroform). The compounds were titrated into acetonitrile or 3:7 MeCN/PBS (pH=7.4) such that their absorbance values were kept below 0.1 to prevent secondary absorbance events. The refractive index of 3:7 v/v MeCN:PBS (pH=7.4) was measured to be 1.343. Characterization of mvpCu and t-mvpCu were conducted in 1:1 v/v DMF:HEPES (50 mM, pH=7.4).

[3] = Log D7.4 measurements (octanol/PBS partition); type: physicochemical; conditions: octanol/PBS pH 7.4
Experimental: Log D7.4 Measurements. Log D measurements were conducted in technical triplicate and 5 experimental replicates. Samples at a known concentration (n=3) were added to Eppendorf tubes containing PBS (pH=7.4, 500 μL) and octanol (500 μL). The Eppendorf tubes were each vortexed for 30 seconds and subsequently subjected to microcentrifuge for 1 minute. Then the PBS and octanol layers were pipetted into a clear 96-well plate. The absorbance values were taken using a SpectraMax M2 plate reader. The log of (dye absorbance in octanol/dye absorbance in PBS) was calculated and averaged across different concentrations to generate the log D7.4.

[4] = tested on: 4T1 cells; experiment: MTT cytotoxicity assay; type: cell-based, murine; conditions: 4T1, up to 15 μM, 6-hour incubation
Experimental: (§1) MTT Cytotoxicity Assay. A 96-well plate was seeded with 30,000 cells per well and incubated at 37° C. with 5% CO2 for 24-48 hours (˜70% confluent). The media was removed and replaced with fresh serum-free medium (200 μL) containing vehicle control (DMSO) or dye (4, 6, 10, or 15 μM). After 4 hours, the media was removed and replaced with a 20:1 mixture of PBS and (3-(4,5-dimethylthiazol-2-yl)-2,5-diphenyl-tetrazolium bromide (MTT, 5 mg/mL stock in PBS). The cells were incubated for 2 hours under the same conditions, and then the media was removed, replaced with DMSO (200 μL), and the absorbance of each well was recorded at 555 nm on a SpectraMax M2 plate reader. Percent viability was calculated relative to the vehicle control (n=8).

[5] = tested on: 4T1 orthotopic breast cancer; experiment: In vivo fluorescence imaging of tumor-bearing mice; parameters: species or system BALB/c mice; conditions: for fluorescence signal enhancement of the tumor site relative to initial background scan: 1.2 mg/kg retroorbital
Experimental: In Vivo Imaging. Before all imaging, hair on the bottom half of mice were removed via an electric razor and depilatory cream. In both FL and PA imaging, a background scan was taken of each mouse before injection. For PA imaging experiments, mice were allowed to equilibrate in the water tank for 10 min, and all scans were collected on H2O mode at 34° C.
Fluorescence Imaging with mvGlu-AB2 and mvGlu-AB3. 4T1 cells were trypsinized, neutralized with growth media, and counted on a Countess II FL Cell Counter (Invitrogen, Thermo Fisher Scientific). Cells were spun down, media was aspirated, and a solution was made in 1:1 serum-free RPMI media to VitroGel® hydrogel. Mice were injected in the mammary fat pad with 300,000 cells (50 μL) of the cell solution. Tumors grew for around 1.5-2 weeks and the mice were imaged once tumors reached 100 mm^3. Dyes (1.2 mg/kg) were dissolved in 0.9% saline (5% DMSO) and injected retroorbitally. Mice were imaged using the CRi Maestro In-Vivo Fluorescence Imaging System at timepoints=0, 6, 8, 12, 16, 24, and 48 hours. Excitation occurred at 680 nm, and light was collected from 690-850 nm (n=3).

[6] = tested on: 4T1 orthotopic breast cancer; experiment: In vivo PA imaging with mvGlu-AB2; parameters: species or system BALB/c mice; conditions: 6 hr, spectral unmixing
Experimental: In Vivo Imaging. Before all imaging, hair on the bottom half of mice were removed via an electric razor and depilatory cream. In both FL and PA imaging, a background scan was taken of each mouse before injection. For PA imaging experiments, mice were allowed to equilibrate in the water tank for 10 min, and all scans were collected on H2O mode at 34° C. PA Imaging with mvGlu-AB2. 4T1 cells were trypsinized, neutralized with growth media, and counted on a Countess II FL Cell Counter (Invitrogen, Thermo Fisher Scientific). Cells were spun down, media was aspirated, and a solution was made in 1:1 serum-free RPMI media to Geltrex™ LDEV-Free, hESC-Qualified, Reduced Growth Factor Basement Membrane Matrix. Mice were injected in the mammary fat pad with 250,000 cells (50 μL) of the cell solution. Tumors grew for around 1.5-2 weeks and the mice were imaged once tumors reached 100 mm^3. mvGluAB-2 was reconstituted in 0.9% saline (5% DMSO) and injected retroorbitally. PA images were taken at timepoints=0 and 6 hours in 5 nm increments from 660-700 nm. Images were spectrally unmixed from hemoglobin, deoxyhemoglobin, and melanin (n=4).

[7] = tested on: A549 human lung cancer cells; experiment: Cellular uptake studies (epifluorescence imaging); type: cell-based
Experimental: Cell Culture. A549 lung cancer cells and 4T1 murine breast cancer cells were acquired from ATCC. A549 cells were cultured in Ham's F-12K Medium containing 10% FBS and 1% penicillin streptomycin solution, and 4T1 cells were cultured in RPMI-1640 Medium containing 10% FBS and 1% penicillin streptomycin solution. Cells were incubated at 37° C. with 5% CO2. Experiments were performed in 8-well plates (Nuc Lab-Tek Chambered Coverglass, Thermo Scientific) or 96-well plates (Nuclon Delta Surface Flat Bottom, Thermo Scientific).
Cellular Uptake Studies. 8-well borosilicate plates were prepared with poly-L-Lysine coating and seeded with 50,000 cells per well and incubated at 37° C. with 5% CO2 for 24 hours (˜60% confluent). Serum-free media containing mvGlu-AB2 (2 μM), 15 mM Glucose, mvGlu-AB2 (2 μM)+15 mM Glucose, L-mvGlu-AB2 (2 μM), dimethoxy aza-BODIPY (2 μM), or vehicle (DMSO) were prepared. Competition glucose wells were preincubated with 15 mM glucose in serum-free media for 30 minutes. […] The media was removed and replaced with PBS. Cells were imaged using an EVOS FL epifluorescence microscope with a Cy7 filter cube. Four experimental replicates and 3 technical replicates were taken.
Quantification of Cell Imaging Data. In FIJI (ImageJ), ROIs were drawn around representative cells and the integrated density (area×mean gray value) was measured. The total cell fluorescence was calculated by subtracting the integrated density of the cell by the background integrated fluorescence. Technical replicates (n=3) in each well were quantified as the average of 3 cells. Values are reported as the average (+SD) of […] (n=4). Colocalization Studies with mvGlu-AB2. 8-well borosilicate plates were prepared with poly-L-Lysine coating and seeded with 45,000 cells per well and incubated at 37° C. with 5% CO2 for 24 hours (˜60% confluent). Serum-free media containing mvGlu-AB2 (1 μM) was prepared. Cells were incubated for 30 minutes with mvGlu-AB2. The cells were washed 1× with PBS and incubated with the relevant organelle tracker according to the manufacturer recommended protocol. Following incubation with tracker, the cells were washed 1× with PBS. Cells were imaged using an EVOS FL epifluorescence microscope. Lysotracker® Green and Mitotracker® Green were imaged using a GFP filter cube, DAPI was imaged using a DAPI filter cube, and mvGlu-AB2 was image with a Cy7 filter cube. Four experimental replicates and 3 technical replicates were taken.

[8] = tested on: A549 cells; experiment: MTT cytotoxicity assay; type: cell-based, human; conditions: A549, up to 15 μM, 6-hour incubation
Experimental: as §1

SMILES: COc1ccc(C2=[N+]3C(=Nc4c(-c5ccccc5)cc(-c5ccc(OC)cc5)n4[B-]3(F)F)C(c3ccccc3)=C2)cc1 [AB-OMe2, reference compound]
- fluorescence quantum yield Φ of reference standard [1]: 0.36
- extinction coefficient ε [2]: 3000 M⁻¹ cm⁻¹
- ε ([2]; Table 1b): 3400 M/cm
- λabs ([2]; Table 1b): 689 nm
- λem ([2]; Table 1b): 710 nm
- PABF ([2]; Table 1b): 0.34 ×10^4
- Φ ([2]; Table 1b): 0.014
- ε ([2]; Table 2): 3400 M/cm
- λabs ([2]; Table 2): 689 nm
- λem ([2]; Table 2): 710 nm
- PABF ([2]; Table 2): 0.34 × 10^4
- Φ ([2]; Table 2): 0.014
- logD7.4 ([3]; Table 2): 2.51 ± 0.92
- logD7.4 [3]: 2.51±0.92

SMILES: COc1ccc(-c2cc(-c3ccccc3)c3n2[B-](OC)(OC)[N+]2=C(c4ccc(OCc5cn(C(COC6OC(CO)C(O)C(O)C6O)COC6OC(CO)C(O)C(O)C6O)nn5)cc4)C=C(c4ccccc4)C2=N3)cc1 (centres unmarked) [mvGlu-AB1]
- ε ([2]; Table 1b): 18000 M/cm
- λabs ([2]; Table 1b): 675 nm
- λem ([2]; Table 1b): 710 nm
- PABF ([2]; Table 1b): 1.6 ×10^4
- Φ ([2]; Table 1b): 0.10
- ε ([2]; Table 2): 18000 M/cm
- λabs ([2]; Table 2): 675 nm
- λem ([2]; Table 2): 710 nm
- PABF ([2]; Table 2): 1.6 × 10^4
- Φ ([2]; Table 2): 0.10
- logD7.4 ([3]; Table 2): 0.75 ± 0.02
- logD7.4 [3]: 0.75±0.02

SMILES: CO[B-]1(OC)n2c(-c3ccc(OCc4cn(C(COC5OC(CO)C(O)C(O)C5O)COC5OC(CO)C(O)C(O)C5O)nn4)cc3)cc(-c3ccccc3)c2N=C2C(c3ccccc3)=CC(c3ccc(OCc4cn(C(COC5OC(CO)C(O)C(O)C5O)COC5OC(CO)C(O)C(O)C5O)nn4)cc3)=[N+]21 (centres unmarked) [mvGlu-AB2]
- cell viability (MTT) [4]: no loss in cell viability
- fluorescence signal enhancement of the tumor site relative to initial background scan ([5]; after 8 hours): ~2 fold
- PA signal difference of tumor prior to and after injection [6]: 4.1 fold
- extinction coefficient ε [2]: 26000 M⁻¹ cm⁻¹
- ε ([2]; Table 1b): 26000 M/cm
- λabs ([2]; Table 1b): 679 nm
- λem ([2]; Table 1b): 710 nm
- PABF ([2]; Table 1b): 2.1 ×10^4
- Φ ([2]; Table 1b): 0.19
- ε ([2]; Table 2): 26000 M/cm
- λabs ([2]; Table 2): 679 nm
- λem ([2]; Table 2): 710 nm
- PABF ([2]; Table 2): 2.1 × 10^4
- Φ ([2]; Table 2): 0.19
- ε higher than AB-OMe2 ([2]; ratio to AB-OMe2): 8.7 fold
- low dye concentration at which a clear fluorescent signature was apparent ([7]; A549): 50 nM
- brighter than cells treated with l-mvGlu isomer ([7]; A549, 2 μM): 3 fold
- signal intensity higher when glucose was absent ([7]; A549, dye 2 μM, vs pre-incubation with glucose 15 mM): 2 fold
- fluorescence signal intensity brighter than AB-OMe2-treated cells ([7]; A549, imaged after 20 minutes): > 1000 fold
- cell viability (MTT) [8]: no loss in cell viability
- logD7.4 ([3]; Table 2): −1.12 ± 0.16
- logD7.4 [3]: −1.12±0.16

SMILES: COc1ccc(C2=[N+]3C(=Nc4c(-c5ccc(OCc6cn(C(COC7OC(CO)C(O)C(O)C7O)COC7OC(CO)C(O)C(O)C7O)nn6)cc5)cc(-c5ccc(OC)cc5)n4[B-]3(OC)OC)C(c3ccc(OCc4cn(C(COC5OC(CO)C(O)C(O)C5O)COC5OC(CO)C(O)C(O)C5O)nn4)cc3)=C2)cc1 (centres unmarked) [mvGlu-AB3]
- in vivo imaging results compared with mvGlu-AB2 ([5]; FIGS. 17-18): comparable
- fluorescence signal enhancement of the tumor site relative to initial background scan ([5]; after 12 hours): ~2 fold
- ε ([2]; Table 1b): 24000 M/cm
- λabs ([2]; Table 1b): 681 nm
- λem ([2]; Table 1b): 712 nm
- PABF ([2]; Table 1b): 1.7 ×10^4
- Φ ([2]; Table 1b): 0.31
- ε ([2]; Table 2): 24000 M/cm
- λabs ([2]; Table 2): 681 nm
- λem ([2]; Table 2): 712 nm
- PABF ([2]; Table 2): 1.7 × 10^4
- Φ ([2]; Table 2): 0.31
- logD7.4 ([3]; Table 2): −0.71 ± 0.11
- logD7.4 [3]: −0.71±0.11
